Numbered stars: 1 amine (or outer) side, 2 acyl side, 3 side chain; on linkers, the order of the positions; unused ones are H or OH. Bridge positions count the residues as written; N and C are the ends. Side chains are listed from the residue outwards. Peptide text beside a SMILES is read from it. * marks the point of attachment. C20 diacid = O=C(O)CCCCCCCCCCCCCCCCCCC(=O)*; γGlu = O=C(O)[C@H](CCC(=O)[*:2])N[*:1]; AEEA = NCCOCCOCC(=O)O
Legend:
Sprague Dawley (SD) rats = test: ASSAY (I) efficacy testing on appetite (food intake) using an ad libitum fed rat model; format: in vivo; conditions: rat, 30 nmol/kg
How it was run: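 Individual food consumption was logged each hour up to 7 h and again at 24 h, occasionally 48 h, with Grubbs-test outliers removed. Each 200–250 g Sprague Dawley rat, free-feeding in its home cage under reversed lighting, received a single ip, po or sc dose of 0.01–3 mg/kg at lights-off, alongside a vehicle group.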

[1] = target: T1, human amylin 3(a) receptor (human calcitonin receptor + RAMP-3) in BHK570 cells (Homo sapiens, UniProt O60896+P30988); test: ASSAY (II)a functional assay, human amylin receptor (CRE luciferase); format: cell-based
T1 construct: expressed in transfected cells
How it was run: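 Read-out: CRE-driven luciferase luminescence, single photon counting, after 30 min at room temperature with LucLite. BHK cells expressed calcitonin receptor alone or with RAMP-3 (amylin 3(a)). Cells were stimulated 3 h at 37° C in DMEM, 10% FBS, 10 mM Hepes, pH 7.4.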

[2] = target: T2, human amylin receptor (membranes from Amylin 3(a)/CRE-luc cells) (Homo sapiens, UniProt O60896+P30988); test: ASSAY (V) binding to the human amylin receptor (SPA, 125I-rat amylin);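 further: competition binding of cell membranes (35 ng/µL) mixed with SPA beads in 384-well plates at 40 µL total volume, read by scintillation counting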
T2 construct: expressed in transfected cells
T2 sequence (P30988 25-474): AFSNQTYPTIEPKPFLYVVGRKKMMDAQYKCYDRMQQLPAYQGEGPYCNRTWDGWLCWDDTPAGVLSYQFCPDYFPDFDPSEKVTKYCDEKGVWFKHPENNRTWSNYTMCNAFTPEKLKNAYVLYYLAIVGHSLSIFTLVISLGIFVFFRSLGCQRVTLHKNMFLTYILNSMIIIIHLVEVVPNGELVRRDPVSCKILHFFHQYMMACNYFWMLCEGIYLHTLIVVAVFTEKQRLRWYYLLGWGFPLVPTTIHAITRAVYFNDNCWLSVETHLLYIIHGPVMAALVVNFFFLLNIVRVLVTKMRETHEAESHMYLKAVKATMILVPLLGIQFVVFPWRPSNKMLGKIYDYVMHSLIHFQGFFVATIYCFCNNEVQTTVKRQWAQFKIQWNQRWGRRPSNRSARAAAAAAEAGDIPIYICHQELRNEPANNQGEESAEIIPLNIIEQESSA
T2 sequence (O60896 24-148 partner): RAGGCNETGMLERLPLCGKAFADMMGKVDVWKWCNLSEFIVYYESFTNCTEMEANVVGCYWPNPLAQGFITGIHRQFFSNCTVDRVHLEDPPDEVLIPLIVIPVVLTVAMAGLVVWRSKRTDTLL

rat calcitonin receptor = target: T3, rat calcitonin receptor (Rattus norvegicus, UniProt P32214); test: ASSAY (VIII) binding to the rat calcitonin receptor; conditions: Table 7, read-out: rCTR bind IC50
T3 construct: expressed in transfected cells; host or cells: BHK tk'ts 13 (transient, FuGENE 6), membranes
T3 sequence (P32214 25-479 isoform P32214-2 limits assumed): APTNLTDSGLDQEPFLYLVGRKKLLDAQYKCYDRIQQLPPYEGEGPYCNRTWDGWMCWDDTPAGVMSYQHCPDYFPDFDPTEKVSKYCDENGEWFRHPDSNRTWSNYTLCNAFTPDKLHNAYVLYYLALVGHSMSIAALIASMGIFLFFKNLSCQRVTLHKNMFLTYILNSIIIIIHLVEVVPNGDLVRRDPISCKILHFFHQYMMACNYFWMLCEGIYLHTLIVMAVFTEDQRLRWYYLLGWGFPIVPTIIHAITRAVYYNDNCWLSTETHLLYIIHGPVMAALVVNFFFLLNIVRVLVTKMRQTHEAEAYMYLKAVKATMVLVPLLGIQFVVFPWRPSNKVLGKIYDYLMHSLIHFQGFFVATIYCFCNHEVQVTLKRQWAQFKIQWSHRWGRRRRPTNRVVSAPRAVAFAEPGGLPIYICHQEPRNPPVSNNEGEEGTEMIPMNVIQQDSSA
How it was run: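 Receptor source: membranes from transiently transfected BHK tk′ts 13 cells expressing rat calcitonin receptor, collected roughly 48 hours after transfection.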

[3] = hCTR funct. EC50 divided by hAmylin-R funct. EC50
[4] = hCTR funct. EC50 over hAmylin-R funct. EC50
[5] = human functional selectivity: hCTR funct. EC50 / hAmylin-R funct. EC50
[6] = Table 5, selectivity, hCTR bind IC50 / hAmylin-R bind IC50
[7] = Table 5a, selectivity, hCTR bind IC50 / hAmylin-R bind IC50
[8] = Table 7, human binding selectivity, included for comparison
[9] = Table 7a (preferred compounds), human binding selectivity, included for comparison
[10] = ratio of human calcitonin receptor binding IC50 to human amylin receptor binding IC50
[11] = Table 5b, selectivity, hCTR bind IC50 / hAmylin-R bind IC50
[12] = Table 5c, selectivity, hCTR bind IC50 / hAmylin-R bind IC50

Compound	Food intake reduction 0-24 h 30 nmol/kg (%) (Sprague Dawley (SD) rats)	Food intake reduction 24-48 h 30 nmol/kg (%) (Sprague Dawley (SD) rats)	Ratio hCT/hAmylin funct. [1, 3]	Ratio hCT/hAmylin funct. [1, 4]	Ratio hCT/hAmylin funct. [1, 5]	Ratio hCT/hAmylin binding [2, 6]	Ratio hCT/hAmylin binding [2, 7]	Ratio hCT/hAmylin binding [2, 8]	Ratio hCT/hAmylin binding [2, 9]	Ratio hCT/hAmylin binding [2, 10]	IC50 (rat calcitonin receptor)	Ratio hCT/hAmylin binding [2, 11]	Ratio hCT/hAmylin binding [2, 12]
CC[C@H](C)[C@H](NC(=O)[C@H](C)NC(=O)CNC(=O)[C@H](Cc1ccccc1)NC(=O)[C@H](CC(N)=O)NC(=O)[C@@H]1CCCN1C(=O)[C@H](CO)NC(=O)[C@H](CO)NC(=O)[C@H](Cc1c[nH]cn1)NC(=O)[C@H](CCCNC(=N)N)NC(=O)[C@H](CC(C)C)NC(=O)[C@H](Cc1ccccc1)NC(=O)[C@H](CCC(=O)O)NC(=O)[C@H](C)NC(=O)[C@H](CC(C)C)NC(=O)[C@H](CCCNC(=N)N)NC(=O)[C@H](CCC(N)=O)NC(=O)[C@@H](NC(=O)[C@H](C)NC(=O)[C@@H]1CSSC[C@H](NC(=O)[C@H](CCCCN)NC(=O)CC[C@H](NC(=O)CCCCCCCCCCCCCCCCCCC(=O)O)C(=O)O)C(=O)N[C@@H](CC(N)=O)C(=O)N[C@@H]([C@@H](C)O)C(=O)N[C@@H](C)C(=O)N[C@@H]([C@@H](C)O)C(=O)N1)[C@@H](C)O)C(=O)N1CCC[C@H]1C(=O)N[C@@H](CO)C(=O)N[C@@H](CO)C(=O)N[C@H](C(=O)N[C@@H](CC(N)=O)C(=O)N[C@H](C(=O)NCC(=O)N1CCC[C@H]1C(=O)N[C@@H](CC(N)=O)C(=O)N[C@H](C(=O)N[C@@H](Cc1ccc(O)cc1)C(N)=O)[C@@H](C)O)C(C)C)[C@@H](C)O [Example 32] ({C20 diacid-γGlu}-KCNTATCATQRLAEFLRHSSPNFGAIPSSTNVGPNTY-NH2; disulfide 2-7)	62%	7%	6.6	6.6	6.6	10.9	10.9	10.9	10.9	10.9	5.98 nM	–	–
CC[C@H](C)[C@H](NC(=O)[C@H](C)NC(=O)CNC(=O)[C@H](Cc1ccccc1)NC(=O)[C@H](CC(N)=O)NC(=O)[C@@H]1CCCN1C(=O)[C@H](CO)NC(=O)[C@H](CO)NC(=O)[C@H](Cc1c[nH]cn1)NC(=O)[C@H](CCCNC(=N)N)NC(=O)[C@H](CC(C)C)NC(=O)[C@H](Cc1ccccc1)NC(=O)[C@H](CC(N)=O)NC(=O)[C@H](C)NC(=O)[C@H](CC(C)C)NC(=O)[C@H](CCCNC(=N)N)NC(=O)[C@H](CCC(N)=O)NC(=O)[C@@H](NC(=O)[C@H](C)NC(=O)[C@@H]1CSSC[C@H](NC(=O)[C@H](CCCCN)NC(=O)CC[C@H](NC(=O)CCCCCCCCCCCCCCCCCCC(=O)O)C(=O)O)C(=O)N[C@@H](CC(N)=O)C(=O)N[C@@H]([C@@H](C)O)C(=O)N[C@@H](C)C(=O)N[C@@H]([C@@H](C)O)C(=O)N1)[C@@H](C)O)C(=O)N1CCC[C@H]1C(=O)N[C@@H](CO)C(=O)N[C@@H](CO)C(=O)N[C@H](C(=O)N[C@@H](CC(N)=O)C(=O)N[C@H](C(=O)NCC(=O)N[C@@H](CO)C(=O)N[C@@H](CCCCN)C(=O)N[C@H](C(=O)N[C@@H](Cc1ccc(O)cc1)C(N)=O)[C@@H](C)O)C(C)C)[C@@H](C)O [Example 34]	37%	25%	8.4	–	8.4	64.4	64.4	64.4	64.4	64.4	89.2 nM	64.4	64.4
CC[C@H](C)[C@H](NC(=O)[C@H](C)NC(=O)CNC(=O)[C@H](Cc1ccccc1)NC(=O)[C@H](CC(N)=O)NC(=O)[C@@H]1CCCN1C(=O)[C@H](CO)NC(=O)[C@H](CO)NC(=O)[C@H](Cc1c[nH]cn1)NC(=O)[C@H](CCCNC(=N)N)NC(=O)[C@H](CC(C)C)NC(=O)[C@H](Cc1ccccc1)NC(=O)[C@H](CC(N)=O)NC(=O)[C@H](C)NC(=O)[C@H](CC(C)C)NC(=O)[C@H](CCCNC(=N)N)NC(=O)[C@H](CCC(N)=O)NC(=O)[C@@H](NC(=O)[C@H](C)NC(=O)[C@@H]1CSSC[C@H](NC(=O)[C@H](CCCCN)NC(=O)CC[C@H](NC(=O)CCCCCCCCCCCCCCCCCCC(=O)O)C(=O)O)C(=O)N[C@@H](CC(N)=O)C(=O)N[C@@H]([C@@H](C)O)C(=O)N[C@@H](C)C(=O)N[C@@H]([C@@H](C)O)C(=O)N1)[C@@H](C)O)C(=O)N1CCC[C@H]1C(=O)N[C@@H](CO)C(=O)N[C@@H](CO)C(=O)N[C@H](C(=O)N[C@@H](CC(N)=O)C(=O)N[C@H](C(=O)NCC(=O)N[C@@H](Cc1c[nH]cn1)C(=O)N[C@@H](CC(N)=O)C(=O)N[C@H](C(=O)N[C@@H](Cc1ccc(O)cc1)C(N)=O)[C@@H](C)O)C(C)C)[C@@H](C)O [Example 40]	51%	26%	16.4	16.4	16.4	31.1	31.1	31.1	31.1	31.1	69.2 nM	31.1	31.1
CC[C@H](C)[C@H](NC(=O)[C@H](C)NC(=O)CNC(=O)[C@H](Cc1ccccc1)NC(=O)[C@H](CC(N)=O)NC(=O)[C@@H]1CCCN1C(=O)[C@H](CO)NC(=O)[C@H](CO)NC(=O)[C@H](Cc1c[nH]cn1)NC(=O)[C@H](CCCNC(=N)N)NC(=O)[C@H](CC(C)C)NC(=O)[C@H](Cc1ccccc1)NC(=O)[C@H](CC(N)=O)NC(=O)[C@H](C)NC(=O)[C@H](CC(C)C)NC(=O)[C@H](CCCNC(=N)N)NC(=O)[C@H](CCC(N)=O)NC(=O)[C@@H](NC(=O)[C@H](C)NC(=O)[C@@H]1CSSC[C@H](NC(=O)[C@H](CCCNC(=N)N)NC(=O)[C@@H](N)CCCCNC(=O)COCCOCCNC(=O)CC[C@H](NC(=O)CCCCCCCCCCCCCCCCCCC(=O)O)C(=O)O)C(=O)N[C@@H](CC(N)=O)C(=O)N[C@@H]([C@@H](C)O)C(=O)N[C@@H](C)C(=O)N[C@@H]([C@@H](C)O)C(=O)N1)[C@@H](C)O)C(=O)N1CCC[C@H]1C(=O)N[C@@H](CO)C(=O)N[C@@H](CO)C(=O)N[C@H](C(=O)N[C@@H](CC(N)=O)C(=O)N[C@H](C(=O)NCC(=O)N[C@@H](CO)C(=O)N[C@@H](Cc1c[nH]cn1)C(=O)N[C@H](C(=O)N[C@@H](Cc1ccc(O)cc1)C(N)=O)[C@@H](C)O)C(C)C)[C@@H](C)O [Example 45] (H-K([AEEA-γGlu-C20 diacid])RCNTATCATQRLANFLRHSSPNFGAIPSSTNVGSHTY-NH2; disulfide 3-8 (inferred))	27%	3%	17.0	17.0	17.0	26.8	26.8	26.8	26.8	26.8	41.8 nM	26.8	26.8

Source: patent publication US9023789B2, “Amylin analogs and pharmaceutical compositions thereof” (Novo Nordisk A/S, priority 2012, dated 2015)
